What all share (format): cell-based, human
For test [1], the system named is 19-9-11 ishcat-1 and ishcat-2 cells. As to the kind of experiment: Growth factor free cardiac differentiation by CH followed by dox-induced β-catenin shRNA, cTnT flow cytometry. The protocol: cardiac directed differentiation via small molecules: Cells were dissociated and plated as described in the Activin/BMP4 protocol. When hPS cells maintained on Matrigel® or Synthemax plates achieved confluence, cells were treated with CH in RPMI/B27-insulin for 24 hr (day 0 to day 1). The medium was changed to RPMI/B27-insulin, followed by 2 μg/ml dox treatment at different times between day 1 and day 5 for transgenic cell lines. For genetically unmodified lines, 5 μM IWP2 (Tocris) or IWP4 (Stemgent) was added at day 3 and removed during the day 5 medium change. Cells were maintained in the RPMI/B27 starting from day 7, with the medium changed every 3 days. Flow Cytometry: Cells were dissociated into single cells and then fixed with 1% paraformaldehyde for 20 min at room temperature and stained with primary and secondary antibodies in PBS plus 0.1% Triton X-100 and 0.5% BSA. For the cell proliferation assay, a 17-hour pulse of BrdU was performed to identify dividing cardiomyocytes (Zhang et al., Circ. Res. 104, e30-41 (2009)). Data were collected on a FACSCaliber flow cytometer (Beckton Dickinson) and analyzed using FlowJo. Our results and prior studies (Ren et al., J. Mol. Cell. Cardiol. 51:280-287 (2011); Tran et al., Stem Cells 27:1869-1878 (2009); Wang et al., A.C.S. Chem. Biol. 6, 192-197 (2011); […] et al., Circ Res. 109:360-364 (2011)) indicate that induction of canonical Wnt signaling early and suppression of canonical Wnt signaling at later stages of differentiation enhance yield of cardiomyocytes. The inventors next sought to determine whether modulating Gsk3 and canonical Wnt signaling alone was sufficient to induce cardiogenesis. Undifferentiated hPS cells were cultured in RPMI/B27-insulin medium containing CH. CH was removed by medium exchange at day 1 and dox was added to the medium at various time points between […] and day 4. At day 5, the medium was replaced with RPMI/B27-insulin (FIG. 6A) and cardiomyocyte differentiation was assessed at day 15 by the percentage and yield of cTNT and/or MF20 expressing cells. In the 19-9-11 […]-1 line, 12 μM CH produced the most cTNT+ cells at day 15 without additional dox-induced β-catenin knockdown (FIG. 7A). The inventors then investigated the effect of the timing of dox treatment following addition of 12 μM CH. Addition of dox 36 hours following initiation of differentiation generated 95% cTNT+ cells with yields of approximately 15 cTNT+ cells per input iPSC (FIGS. 6B and 7B). A high yield of cTNT+ cells was also obtained using 19-9-11 […]-2 and three additional hPS cell lines (IMR90C4, 6-9-9, and H9) transduced with inducible β-catenin shRNA […]-1 (FIG. 7C).

In test [2] the test system is BMP2, BMP4 and NODAL expression in 19-9-11 ishcat-2 cells. Description: RT-PCR of TGFβ pathway genes during CH-induced differentiation. The note with it: upon 12 μM CH treatment. How it is done: RT-PCR and Quantitative RT-PCR: Total RNA was prepared with the RNeasy mini kit (QIAGEN) and treated with DNase (QIAGEN). 1 μg RNA was reverse transcribed into cDNA via Oligo (dT) with Superscript III Reverse Transcriptase (Invitrogen). Real-time quantitative PCR was done in triplicate with iQ SYBR Green SuperMix (Bio-Rad). RT-PCR was done with Gotaq Master Mix (Promega) and then subjected to 2% agarose gel electrophoresis. ACTB was used as an endogenous control. To determine whether canonical Wnt signaling requires TGFβ superfamily signaling to induce cardiogenesis, the inventors quantified cTnT+ cell generation in 19-9-11 […]-2 cells when Activin A and BMP4 signaling antagonists were presented during the first 24 hr of cardiomyocyte induction with 12 μM CH. All samples were treated with dox at 48 hours. […] To further investigate the role of TGFβ superfamily signaling in Wnt pathway-mediated cardiogenesis the inventors assessed Smad1/5 and Smad2 phosphorylation, downstream of BMP4 and Activin A signaling respectively. As expected, substantial Smad1/5 and Smad2 phosphorylation was detected in cells that had been treated with Activin A and BMP4 (FIGS. 9B and 10A).

For test [3], the system named is 19-9-11 shcat-2 and scramble lines. As to the kind of experiment: Flow cytometry of Oct4 and brachyury in CH-treated 19-9-11 shcat-2 and scramble lines. The note with it: for cells expressing Oct4: 4 days of CH (12 μM) in mTeSR1. How it is done: Flow Cytometry: Cells were dissociated into single cells and then fixed with 1% paraformaldehyde for 20 min at room temperature and stained with primary and secondary antibodies in PBS plus 0.1% Triton X-100 and 0.5% BSA. For the cell proliferation assay, a 17-hour pulse of BrdU was performed to identify dividing cardiomyocytes (Zhang et al., Circ. Res. 104, e30-41 (2009)). Data were collected on a FACSCaliber flow cytometer (Beckton Dickinson) and analyzed using FlowJo. To test whether induction of cardiomyocyte differentiation by GSK3 inhibitors requires β-catenin, the inventors treated the shcat-2 and scramble 19-9-11 lines with CH in mTeSR1 medium. While the shcat-2 line maintained an undifferentiated morphology, the scramble line appeared to undergo differentiation (FIG. 2E), similar to non-transduced lines treated with CH (FIGS. 1B and 2B). Induction of differentiation following CH treatment in the scramble control was further indicated by diminished SOX2 and NANOG expression at day 4 (FIG. 3C). […] After 4 days of CH treatment in mTeSR1, the percentage of cells expressing Oct4 decreased to 61% in the scramble line, while 98% of the shcat-2 cells expressed Oct4 (FIG. 3D). […] To better understand early mesoderm induction via GSK3 inhibition, the inventors analyzed expression of the early mesoderm gene T in scramble and shcat-2 19-9-11 lines. As CH concentration increased, the ratio of T expression in scramble to the shcat-2 line increased (FIG. 3E). Less than 2% of shcat-2 cells expressed brachyury upon exposure to different concentrations of CH treatment for 4 days.
Background: Flow cytometry measures light scatter and fluorescence of single cells or particles in a stream.

Where [4] appears, read: 12 μM CH, dox added 36 hours following initiation of differentiation, day 15.

Turning to `Cc1c[nH]c(-c2cnc(NCCNc3ccc(C#N)cn3)nc2-c2ccc(Cl)cc2Cl)n1` [CH], in test [1] (12 μM CH followed by dox treatment at 36 hours, >50 independent experiments), the purity of cardiomyocytes was greater than 90%. Moreover, in test [1] (setting [4]), the “cTNT+ cells” value was determined as 95% and the “yield of cTNT+ cells” value is on record as “approximately 15 cTNT+ cells per input iPSC”. Moreover, in test [1] (19-9-11 ishcat-1 line, without dox-induced β-catenin knockdown), the “CH concentration that produced the most cTNT+ cells at day 15” value turned out to be 12 µM. The NODAL expression result in test [2] is “transient upregulation”. Moreover, in test [2] (throughout differentiation), the “BMP2 and BMP4 gene expression” value is listed as “gradually upregulated”. Further, in test [3] (scramble line, 15 μM CH for 4 days), the “brachyury+ cells” value was determined as 76%. Further, in test [3] (scramble line), the “cells expressing Oct4” value was found to be 61%. Moreover, the “cells expressing Oct4” value in test [3] (shcat-2 cells) came to 98%. Besides, the cells expressing brachyury result in test [3] (shcat-2 cells, different concentrations of CH for 4 days) is recorded as “Less than 2%”.

Values taken from patent US9663764B2, “Generation of cardiomyocytes from human pluripotent stem cells” (Wisconsin Alumni Research Foundation, priority 2011, dated 2017).
